“And” between values parts separate entries of the source, which are not always exact repeats. Equal values may be shown once. Toxic doses and inconclusive results are not listed. How the source made its calls: active means survival T/C of 150% or more; inactive means T/C below 125% in these data.
Tested on: P388 leukemia ip, CD2F1 mice, survival T/C
Experiment: NCI In Vivo Anticancer Drug Screen. Data for tumor model P388 Leukemia (intraperitoneal) in CD2F1 (CDF1) mice
Settings: endpoint: median survival time, higher = longer survival
Procedure, shortened: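 Mice carrying the transplanted tumor received test compound or vehicle. Survival was recorded in each group, and the value is the treated-group measurement divided by that of the vehicle-treated control group.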

[1] = dose: 60.0 mg/kg/injection, schedule: Q01DX005 (ip), vehicle: saline with Tween-80
[2] = dose: 120.0 mg/kg/injection, schedule: Q01DX005 (ip), vehicle: saline with Tween-80
[3] = dose: 240.0 mg/kg/injection, schedule: Q01DX005 (ip), vehicle: saline with Tween-80
[4] = dose: 50.0 mg/kg/injection, schedule: Q01DX005 (ip), vehicle: Klucel (hydroxypropylcellulose) (HPC)
[5] = dose: 100.0 mg/kg/injection, schedule: Q01DX005 (ip), vehicle: Klucel (hydroxypropylcellulose) (HPC)
[6] = dose: 200.0 mg/kg/injection, schedule: Q01DX005 (ip), vehicle: Klucel (hydroxypropylcellulose) (HPC)
[7] = dose: 50.0 mg/kg/injection, schedule: Q01DX009 (ip), vehicle: Klucel (hydroxypropylcellulose) (HPC)
[8] = dose: 50.0 mg/kg/injection, schedule: Q01DX005 (ip), vehicle: saline
[9] = dose: 100.0 mg/kg/injection, schedule: Q01DX005 (ip), vehicle: saline
[10] = dose: 50.0 mg/kg/injection, schedule: Q01DX005 (ip), vehicle: saline with Tween-80
[11] = dose: 100.0 mg/kg/injection, schedule: Q01DX005 (ip), vehicle: saline with Tween-80
[12] = dose: 200.0 mg/kg/injection, schedule: Q01DX005 (ip), vehicle: saline with Tween-80

Measured: T/C

CC1(CO)COC(c2ccc(Cl)cc2)N1 (stereo not given)
inactive: dose: 50.0 mg/kg/injection, schedule: Q01DX005 (ip), vehicle: acetone 106 % of control | dose: 100.0 mg/kg/injection, schedule: Q01DX005 (ip), vehicle: acetone 106 % of control | dose: 200.0 mg/kg/injection, schedule: Q01DX005 (ip), vehicle: acetone 112 % of control

C#CC1=CC(=O)C(OC)=CC1=O
inactive: dose: 7.5 mg/kg/injection, schedule: Q01DX005 (ip), vehicle: Klucel (hydroxypropylcellulose) (HPC) 99 % of control | dose: 15.0 mg/kg/injection, schedule: Q01DX005 (ip), vehicle: Klucel (hydroxypropylcellulose) (HPC) 100 % of control

NC(=O)c1cc2c(oc1=O)-c1ccccc1OC2
inactive: [1] 98 % of control | [2] 95 % of control | [3] 95 % of control

Cn1cnc([N+](=O)[O-])c1Sc1ncccc1C(=O)O
inactive: [4] 112 % of control | [5] 114 % of control | [6] 105 % of control

COc1cc(OC)c2c(c1Cl)OCC2=O
inactive: dose: 50.0 mg/kg/injection, schedule: Q01DX009 (ip), vehicle: saline sonified 95 % of control | dose: 100.0 mg/kg/injection, schedule: Q01DX009 (ip), vehicle: saline sonified 104 % of control | dose: 200.0 mg/kg/injection, schedule: Q01DX009 (ip), vehicle: saline sonified 100 % of control

COc1cccc(/C=N\NC(=O)C(=O)N/N=C\c2cccc(OC)c2O)c1O
inactive: [7] 86 % of control | dose: 100.0 mg/kg/injection, schedule: Q01DX009 (ip), vehicle: Klucel (hydroxypropylcellulose) (HPC) 89 % of control | dose: 200.0 mg/kg/injection, schedule: Q01DX009 (ip), vehicle: Klucel (hydroxypropylcellulose) (HPC) 92 % of control

COS(=O)(=O)N(C)c1nc(N(C)C)nc(N(C)C)n1
inactive: [8] 96 % of control | [9] 108 % of control

O=C1CCSC(=O)N1c1ccccc1
inactive: [10] 108 % of control | [11] 100 % of control | [12] 105 % of control

Cc1cc[n+]2cc(-c3ccc(/C=N/N=C(N)N)cc3)n(C)c2c1
inactive: dose: 1.56 mg/kg/injection, schedule: Q01DX005 (ip), vehicle: Klucel (hydroxypropylcellulose) (HPC) 100 % of control | dose: 3.12 mg/kg/injection, schedule: Q01DX005 (ip), vehicle: Klucel (hydroxypropylcellulose) (HPC) 103 % of control | dose: 6.25 mg/kg/injection, schedule: Q01DX005 (ip), vehicle: Klucel (hydroxypropylcellulose) (HPC) 102 % of control and 107 % of control

COc1cc(-c2ccc(N=Nc3c(O)ccc4ccccc34)c(OC)c2)ccc1N=Nc1ccc2c(S(=O)(=O)O)cc(S(=O)(=O)O)c(N)c2c1O
inactive: dose: 66.0 mg/kg/injection, schedule: Q01DX009 (ip), vehicle: saline 102 % of control | dose: 100.0 mg/kg/injection, schedule: Q01DX009 (ip), vehicle: saline 118 % of control | dose: 150.0 mg/kg/injection, schedule: Q01DX009 (ip), vehicle: saline 114 % of control

CCCCCOC(=O)C1=CCN2CCCC12C (stereo not given)
inactive: dose: 25.0 mg/kg/injection, schedule: Q01DX001 (ip), vehicle: saline with Tween-80 97 % of control | dose: 50.0 mg/kg/injection, schedule: Q01DX001 (ip), vehicle: saline with Tween-80 105 % of control | dose: 100.0 mg/kg/injection, schedule: Q01DX001 (ip), vehicle: saline with Tween-80 97 % of control

C[N+]1(C)CCCC(C(=O)c2ccccc2)C1 (stereo not given)
inactive: dose: 3.75 mg/kg/injection, schedule: Q01DX005 (ip), vehicle: saline 119 % of control | dose: 7.5 mg/kg/injection, schedule: Q01DX005 (ip), vehicle: saline 108 % of control | dose: 15.0 mg/kg/injection, schedule: Q01DX005 (ip), vehicle: saline 103 % of control | dose: 30.0 mg/kg/injection, schedule: Q01DX005 (ip), vehicle: saline 100 % of control and 101 % of control

CC1C2c3ccccc3C(c3ccccc32)C1C(=O)O (stereo not given)
inactive: [10] 98 % of control | [11] 100 % of control | [12] 107 % of control

O=C(Cc1ccccc1)c1ccc(C(F)(F)F)cc1
inactive: dose: 12.5 mg/kg/injection, schedule: Q01DX009 (ip), vehicle: Klucel (hydroxypropylcellulose) (HPC) 104 % of control | dose: 25.0 mg/kg/injection, schedule: Q01DX009 (ip), vehicle: Klucel (hydroxypropylcellulose) (HPC) 95 % of control | [7] 104 % of control and 87 % of control

CC(=O)[O-].[NH2-].[NH2-].[NH2-].[NH2-].[NH2-].[O-][Cl+3]([O-])([O-])O.[Ru+8]
inactive: dose: 3.13 mg/kg/injection, schedule: Q04DX003 (ip), vehicle: saline 118 % of control | dose: 3.13 mg/kg/injection, schedule: Q04DX003 (ip), vehicle: water 99 % of control | dose: 6.25 mg/kg/injection, schedule: Q04DX003 (ip), vehicle: saline 113 % of control | dose: 6.25 mg/kg/injection, schedule: Q04DX003 (ip), vehicle: water 118 % of control | dose: 12.5 mg/kg/injection, schedule: Q04DX003 (ip), vehicle: saline 111 % of control | dose: 12.5 mg/kg/injection, schedule: Q04DX003 (ip), vehicle: water 120 % of control

COC(=O)C(CC=C(C)C)C(C)=O (stereo not given)
inactive: [8] 101 % of control | [9] 101 % of control | dose: 200.0 mg/kg/injection, schedule: Q01DX005 (ip), vehicle: saline 105 % of control

c1ccc(-c2nsc3ccccc23)cc1
inactive: [4] 99 % of control | [5] 106 % of control | [6] 101 % of control

O=[N+]([O-])O.[Cl-].[Cl-].[NH-]CC[NH-].[NH-]CC[NH-].[Rh+3]
inactive: dose: 12.5 mg/kg/injection, schedule: Q04DX003 (ip), vehicle: distilled water + Tween-80 106 % of control | dose: 25.0 mg/kg/injection, schedule: Q04DX003 (ip), vehicle: distilled water + Tween-80 99 % of control | dose: 50.0 mg/kg/injection, schedule: Q04DX003 (ip), vehicle: distilled water + Tween-80 108 % of control | dose: 100.0 mg/kg/injection, schedule: Q04DX003 (ip), vehicle: distilled water + Tween-80 111 % of control | dose: 200.0 mg/kg/injection, schedule: Q04DX003 (ip), vehicle: distilled water + Tween-80 102 % of control

Cc1nc2n(c1/C=N/O)CCS2
inactive: dose: 50.0 mg/kg/injection, schedule: Q01DX001 (ip), vehicle: Klucel (hydroxypropylcellulose) (HPC) 90 % of control | dose: 100.0 mg/kg/injection, schedule: Q01DX001 (ip), vehicle: Klucel (hydroxypropylcellulose) (HPC) 99 % of control | dose: 200.0 mg/kg/injection, schedule: Q01DX001 (ip), vehicle: Klucel (hydroxypropylcellulose) (HPC) 93 % of control

CCOc1cnco1
inactive: dose: 100.0 mg/kg/injection, schedule: Q04DX002 (ip), vehicle: saline 99 % of control | dose: 200.0 mg/kg/injection, schedule: Q04DX002 (ip), vehicle: saline 100 % of control | dose: 400.0 mg/kg/injection, schedule: Q04DX002 (ip), vehicle: saline 112 % of control

COc1cc(NS(=O)(=O)c2ccc(NC(C)c3ccc4cccnc4c3O)cc2)nc(OC)n1 (stereo not given)
inactive: [1] 98 % of control | [2] 99 % of control | [3] 96 % of control

CCOC(=O)CC1NCCc2c1[nH]c1ccccc21 (stereo not given)
inactive: dose: 6.25 mg/kg/injection, schedule: Q01DX001 (ip), vehicle: saline sonified 90 % of control | dose: 12.5 mg/kg/injection, schedule: Q01DX001 (ip), vehicle: saline sonified 90 % of control | dose: 25.0 mg/kg/injection, schedule: Q01DX001 (ip), vehicle: saline sonified 100 % of control

Reference: PubChem BioAssay AID330 (DTP/NCI, 2004)
